Columns and labels:
[1] = test system: urethra internal pressure of a rat; assay: Measurement of Urethra Internal Pressure in Rat Under Anesthesia; format: in vivo; details: SD male rat under urethane anesthesia, intravenous
From the text: A SD male rat (Crl: CD(SD), Charles River Laboratories Japan, Inc., 7-10 weeks old) was anesthetized by subcutaneous administration of 1.5 g/kg urethane at a back of a neck. After neck median incision, a jugular vein catheter for intravenous administration was inserted. A lower abdominal part was median incised, and a urethra was ligated at around pubis. A urethral catheter for measuring a urethra internal pressure, equipped with a collar at a tip and filled with a physiological saline was inserted into a urethra through an incised bladder top, and ligation-fixed at a bladder neck part. The urethral catheter was connected to a pressure transducer (manufactured by Nihon Kohden Corporation), and a urethra internal pressure was measured. […] A urethra internal pressure reduction rate (%) was calculated based on a urethra internal pressure after compound administration, wherein a value obtained by subtracting a postmortem baseline value (minimum value of urethra internal pressure for 10 minutes after administration of somnopentyl) from a urethra internal pressure value before compound administration (0 minute) was 100%.

human ENPP2 = human ENPP2 (Homo sapiens (Human), UniProt Q13822); assay: Measurement of Human ENPP2 Inhibitory Activity; format: biochemical; details: 1 μM test compound; 16:0-LPC substrate, choline production; read-out: ENPP2 inhibition rate(%) (1 μM)
Procedure: 10 μL of a test compound solution (10% dimethyl sulfoxide) at each concentration and 40 μL of a 5 μg/mL human ENPP2 solution (buffer A: 100 mmol/L Tris-HCl (pH 9.0), 500 mmol/L NaCl, 5 mmol/L MgCl2, 0.05% Triton X-100) were mixed, 50 μL of a 2 mmol/L 16:0-lysophosphatidylcholine (LPC) solution (buffer A) was further added to react at 37° C. for 24 hours. Subsequently, to 10 μL of the reaction solution was added 90 μL of a measurement buffer (0.5 mmol/L aminoantipyrine, 0.3 mmol/L N-ethyl-N-(2-hydroxy-3-sulfopropyl)-3-methylaniline, 1 U/mL peroxidase, 3 U/mL choline oxidase, 100 mmol/L Tris-HCl (pH 8.5), 5 mmol/L CaCl2) to react at 37° C. for 20 minutes, and spectrophotometric determination was performed at 555 nm.
Using a standard curve, a choline production amount (enzyme activity) in each test compound was calculated, and the inhibitory activity rate of each test compound was calculated, wherein the enzyme activity in a positive control to which a test compound is not added, was a 0% inhibition rate, and the enzyme activity in a negative control to which a test compound and human ENPP2 are not added, were 100% inhibition. Further, concerning the present compounds shown in Table 3, an IC50 value was calculated from inhibitory activity rate at each concentration.

`O=C(C[C@H]1CC[C@H](C(=O)O)CC1)N1CCc2c(n(Cc3ccc(Cl)cc3F)c3ncccc23)C1` [Example 31(24), trans-4-{2-[9-(4-chloro-2-fluorobenzyl)-5,6,8,9-tetrahydro-7H-pyrido[4′,3′:4,5]pyrrolo[2,3-b]pyridin-7-yl]-2-oxoethyl}cyclohexanecarboxylic acid] was tested, and the urethra internal pressure ([1]; dose 0.03, 0.1, 0.3 mg/kg, FIG. 2) was “significantly reduced a urethra internal pressure”.
With `O=C(O)CCCCC(=O)N1CCc2c(n(CCCc3ccccc3)c3ccccc23)C1` [Example 3, 6-oxo-6-[9-(3-phenylpropyl)-1,3,4,9-tetrahydro-2H-beta-carbolin-2-yl]hexanoic acid] the urethra internal pressure ([1]; dose 0.1, 0.3, 1.0 mg/kg, FIG. 1) was “significantly reduced a urethra internal pressure”.
`O=C(CC12CCC(C(=O)O)(CC1)CC2)N1CCc2c(n(Cc3ccc(Cl)cc3F)c3ncccc23)C1` [Example 31(142), 4-{2-[9-(4-chloro-2-fluorobenzyl)-5,6,8,9-tetrahydro-7H-pyrido[4′,3′:4,5]pyrrolo[2,3-b]pyridin-7-yl]-2-oxoethyl}bicyclo[2.2.2]octane-1-carboxylic acid] showed an inhibition at 1 µM (human ENPP2) of 98.6%.

Reference: patent publication US9636330B2, “Tetrahydrocarboline derivative” (ONO PHARMACEUTICAL CO., LTD., priority 2010, dated 2017)
